# Source: patent US4281121A, “1,3,4-Thiadiazole-2-carboxylic acid derivatives, process for making the same and fungicidal and nematocidal compositions containing same” (Schering Aktiengesellschaft, priority 1978, dated 1981)
# Read-outs that look alike come from different tables or passages of the source.
# Columns and labels:
# Pythium ultimum = assay: Threshold concentration test for use of the compounds against Pythium ultimum (infested soil, garden peas); type: in vivo; design: key to root evaluation (1-4): 4: white roots without fungous necrosis; 3: white roots, minor fungous necrosis; 2: brown roots, already more pronounced fungous necrosis; 1: heavy fungous necrosis, roots rotted; conditions: for root evaluation (1-4): 3 weeks; for number of sound peas: 20 grains per dish, 3 weeks at 20-24° C.
# Experimental: Threshold concentration test for use of the compounds against Pythium ultimum
# A 20% concentration of certain pulverulent active agents as listed below were mixed in uniform manner into a soil which had been heavily infested by Pythium ultimum. The thus treated soil was then placed into clay dishes of a capacity of 0.5 l earth. Without any intermediate time lapse 20 grain of garden peas (Pisum sativum L. convar. medullare Alef.) of the type "Wunder von Kelvedon" were then seeded into each of the clay dishes. After a cultivation period of three weeks at 20° to 24° C. in a hothouse the number of sound peas was determined and a root evaluation was carried out. The active agents amounts and results appear from the following table.
# (§1) The root evaluation was carried out on a scale from 1 to 4 as follows: […]
# Fusarium avenaceum = assay: Threshold concentration test in case of Fusarium avenaceum (infested soil, garden peas); type: in vivo; conditions: for number of sound peas: 20 grains per dish, 18 days at 20-24° C.; for root evaluation (1-4): 18 days
# Experimental: Threshold concentration test in case of Fusarium avenaceum
# A 20% pulverulent active agent of the type further identified in the table below was mixed in uniform manner with a soil which had been heavily infested with Fusarium avenaceum. The thus treated soil was then placed into clay dishes of a capacity of 0.5 l of earth. Each dish was seeded without any intervening time with 20 grains of garden peas (Pisum sativum L. convar. medullare Alef.) of the type "Wunder von Kelvedon". After a cultivation time of 18 days at 20° to 24° C. in a hot house the number of sound peas was determined and a root evaluation was carried out. The active agents employed, the amounts and results appear from the following table.
# as §1
# Tilletia caries = assay: Treatment of oat seeds infested with Tilletia caries (spore germination); type: in vivo
# Helminthosporium gram = conditions: about 5 weeks
# Experimental: Treatment of barley seeds infested with Helminthosporium gram
# After emergence, the plants were subjected to illumination for 12 hours per day. After about 5 weeks the infested plants were counted and the total number of plants for each test were also counted. The active agents tested were used as pulverulent compositions.
# Plasmopara viticola = assay: Prophylactic leaf treatment of grapevines in the hothouse against Plasmopara viticola; type: in vivo
# Experimental: Effects of prophylactic leaf treatment of grapevines in the hothouse against Plasmopara viticola
# Young grapevine plants having from 5 to 8 leaves were sprayed dripping wet with the concentrations of active agents stated in the table below. After drying of the spray deposit the leaves were sprayed with an aqueous suspension of sporangia of the fungus (about 20,000 per ml); the spraying was applied to the bottom side of the leaves. The plants were then immediately incubated in a hothouse at a temperature of 22° to 24° C. and at maximum water saturation in the atmosphere. Beginning with the second day the humidity of the air was reduced for 3 to 4 days to normal level (30 to 70% saturation) and was then maintained for another day on the level of full saturation. Subsequently, the percentage portion of the fungus infested surface of each leaf was noted and the average per treatment was calculated in order to determine the fungicidal activity. This was done on the basis of the following formula: [formula]
# The active compounds were applied in the form of a 20% concentration spray powder.
# [1] = concentration of active agent 0.005 (unit not given)
# [2] = concentration of active agent 0.025 (unit not given)
Structure (SMILES),root evaluation (1-4) (Pythium ultimum; 20 mg/l soil),number of sound peas (Pythium ultimum; 20 mg/l soil),root evaluation (1-4) (Pythium ultimum; 40 mg/l soil),number of sound peas (Pythium ultimum; 40 mg/l soil),root evaluation (1-4) (Pythium ultimum; 80 mg/l soil),number of sound peas (Pythium ultimum; 80 mg/l soil),number of sound peas (Fusarium avenaceum; 25 mg/l soil),root evaluation (1-4) (Fusarium avenaceum; 25 mg/l soil),number of sound peas (Fusarium avenaceum; 50 mg/l soil),root evaluation (1-4) (Fusarium avenaceum; 50 mg/l soil),number of sound peas (Fusarium avenaceum; 100 mg/l soil),root evaluation (1-4) (Fusarium avenaceum; 100 mg/l soil),% activity (Tilletia caries; 50 g active agent per 100 kg),% activity (Helminthosporium gram; 50 g active agent per 100 kg),% activity (Plasmopara viticola; [1]),% activity (Plasmopara viticola; [2]),% activity (Tilletia caries; 20 g active agent per 100 kg),% activity (Helminthosporium gram; 20 g active agent per 100 kg),% activity (Tilletia caries; 10 g active agent per 100 kg)
"CCCC[S+]([O-])c1nnc(C#N)s1 (centres unmarked) [5-butylsulfinyl-1,3,4-thiadiazole-2-carbonitrile]",4,18,4,18,4,20,19,4,19,4,19,4,100%,–,–,–,–,–,–
"CCCC[S+]([O-])c1nnc(C(=O)N(C)C)s1 (centres unmarked) [5-butylsulfinyl-1,3,4-thiadiazole-2-carboxylic acid-dimethylamide]",–,–,–,–,–,–,–,–,–,–,–,–,–,100%,–,–,–,–,–
"CCCCS(=O)(=O)c1nnc(C(N)=O)s1 [5-butylsulfonyl-1,3,4-thiadiazole-2-carboxamide]",1,11,4,20,4,18,15,2,12,3,16,4,–,–,73%,90%,–,–,–
"CCCCS(=O)(=O)c1nnc(C(=O)N2CCC2)s1 [5-butylsulfonyl-1,3,4-thiadiazole-2-carboxylic acid-N,N-trimethylenamide]",–,–,–,–,–,–,5,1,13,2,18,3,100%,–,–,–,–,–,–
"CCS(=O)(=O)c1nnc(C(=O)N2CCC2)s1 [5-ethylsulfonyl-1,3,4-thiadiazole-2-carboxylic acid-N,N-trimethyleneamide]",4,20,4,19,4,20,–,–,–,–,–,–,–,–,–,–,–,–,–
"CC(C)[S+]([O-])c1nnc(C#N)s1 (centres unmarked) [5-isopropylsulfinyl-1,3,4-thiadiazole-2-carbonitrile]",3,17,4,17,4,19,18,4,19,4,18,4,100%,93%,–,–,87%,–,–
"CC(C)[S+]([O-])c1nnc(C(N)=O)s1 (centres unmarked) [5-isopropylsulfinyl-1,3,4-thiadiazole-2-carboxamide]",–,–,–,–,–,–,–,–,–,–,–,–,100%,100%,–,–,–,–,–
"CC(C)[S+]([O-])c1nnc(C(=O)NCC2CCCCC2)s1 (centres unmarked) [5-isopropylsulfinyl-1,3,4-thiadiazole-2-carboxylic acid-cyclohexylmethylamide]",–,–,–,–,–,–,–,–,–,–,–,–,100%,–,–,–,99%,–,–
"C[S+]([O-])c1nnc(C#N)s1 (centres unmarked) [5-methylsulfinyl-1,3,4-thiadiazole-2-carbonitrile]",4,19,4,20,4,20,20,4,18,4,19,4,100%,94%,–,–,100%,–,–
"C[S+]([O-])c1nnc(C(N)=O)s1 (centres unmarked) [5-methylsulfinyl-1,3,4-thiadiazole-2-carboxamide]",–,–,–,–,–,–,–,–,–,–,–,–,100%,100%,–,–,98%,–,–
"C[S+]([O-])c1nnc(C(=O)NCc2ccccc2Cl)s1 (centres unmarked) [5-methylsulfinyl-1,3,4-thiadiazole-2-carboxylic acid-(2-chlorobenzyleamide)]",–,–,–,–,–,–,7,2,11,3,18,4,–,–,–,–,–,–,–
"COCCNC(=O)c1nnc(S(C)(=O)=O)s1 [5-methylsulfonyl-1,3,4-thiadiazole-2-carboxylic acid-(2-methoxyethyl)-amide]",–,–,–,–,–,–,–,–,–,–,–,–,100%,100%,–,–,93%,92%,–
"CS(=O)(=O)c1nnc(C(=O)N2CCC2)s1 [5-methylsulfonyl-1,3,4-thiadiazole-2-carboxylic acid-N,N-trimethylenamide]",4,19,4,20,4,20,–,–,–,–,–,–,100%,–,84%,90%,99%,–,–
"C=CCNC(=O)c1nnc([S+]([O-])CCC)s1 (centres unmarked) [5-propylsulfinyl-1,3,4-thiadiazole-2-carboxylic acid-allylamide]",2,15,4,19,4,19,–,–,–,–,–,–,100%,96%,–,–,100%,–,–
"CCC[S+]([O-])c1nnc(C(=O)NC(C)C)s1 (centres unmarked) [5-propylsulfinyl-1,3,4-thiadiazole-2-carboxylic acid-isopropylamide]",–,–,–,–,–,–,9,3,13,4,16,4,100%,100%,–,–,100%,–,–
"CCCS(=O)(=O)c1nnc(C(=O)NCCCCl)s1 [5-propylsulfonyl-1,3,4-thiadiazole-2-carboxylic acid-(3-chloropropyl)-amide]",1,10,3,19,4,19,–,–,–,–,–,–,–,–,–,–,–,–,–
"CCCCNC(=O)c1nnc(S(=O)(=O)CCC)s1 [5-propylsulfonyl-1,3,4-thiadiazole-2-carboxylic acid-butylamide]",–,–,–,–,–,–,9,1,16,3,17,4,100%,–,–,–,99.7%,–,99.2%
"CCCS(=O)(=O)c1nnc(C(=O)NCC)s1 [5-propylsulfonyl-1,3,4-thiadiazole-2-carboxylic acid-ethylamide]",3,14,4,14,4,14,–,–,–,–,–,–,100%,–,–,–,99.8%,–,99.3%
"S=C([S-])NCCNC(=S)[S-].[Mn+2] [Manganese ethylene-1,2-bis-dithiocarbamate, reference compound]",1,1,1,4,1,11,0,1,0,1,12,1,–,–,–,–,–,–,–
